Experimental data from PubChem BioAssay (NCI).
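Cultured in 96-well plates, cells were exposed to test compound for 48 hours across five concentrations. GI50 = concentration required for 50% inhibition of growth. The concentration for full growth arrest is given as TGI.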

Columns and labels:
Test in all cases: inhibition of tumour cell growth, NCI panel, 48 h
[1] = system: 786-0 renal
[2] = system: SN12C renal
[3] = system: HCT-116 colon
[4] = system: SR leukemia
[5] = system: RPMI-8226 leukemia
[6] = system: U251 CNS
[7] = system: PC-3 prostate
[8] = system: MDA-MB-435
[9] = system: DMS 114 small cell lung
[10] = system: SNB-78 CNS

Row | SMILES | GI50 [1] [µM] | TGI [1] [µM] | GI50 [2] [µM] | TGI [2] [µM] | GI50 [3] [µM] | TGI [3] [µM] | GI50 [4] [µM] | TGI [4] [µM] | GI50 [5] [µM] | TGI [5] [µM] | GI50 [6] [µM] | TGI [6] [µM] | GI50 [7] [µM] | TGI [7] [µM] | GI50 [8] [µM] | TGI [8] [µM] | TGI [9] [µM] | TGI [10] [µM]
1 | C#CCC(Cc1cnc2nc(N)nc(N)c2n1)c1ccc(C(=O)N[C@@H](CCC(=O)O)C(=O)O)cc1 (stereo partly specified) | < 0.01 | > 100 | < 0.01 | > 100 | < 0.01 | > 100 | < 0.01 | > 100 | < 0.01 | > 100 | < 0.01 | > 100 | < 0.01 | > 100 | < 0.01 | > 100 |  | 
2 | COc1cc(C)c(Cl)cc1C1=NN(c2ccc(S(N)(=O)=O)cc2)C(/C=C/c2ccccc2)C1 (stereo unspecified) | 3.67 | 11.9 | 2.68 | 7.03 | 1.9 | 4.72 | 3.06 | 8.91 | 2.76 | 7.93 | 3.12 | 11.3 | 3.11 | 13.8 | 2.65 | 8.4 |  | 
3 | CC1(CO)OC(n2cc(C(=O)NC(=O)OCc3ccccc3)c(=O)[nH]c2=O)CC1O (stereo unspecified) |  | > 100 |  | > 100 |  | > 100 |  | > 100 |  | > 100 |  | > 100 |  |  |  |  | > 100 | 
4 | CCCCCCCCCCCCCC(=O)CC(=O)c1c(O)cccc1O |  | > 100 |  | > 100 |  | > 100 |  |  |  | 72.4 |  | > 100 |  |  |  |  | 47.1 | 75.5
5 | N#Cc1c(NN)nc(NN)c(C#N)c1-c1ccccc1 |  | > 100 |  | > 100 |  | > 100 |  |  |  | > 100 |  |  |  |  |  |  | > 100 | > 100
6 | Cc1cc(S(N)(=O)=O)c(S/C(CC(C)C)=N\Nc2ccc([N+](=O)[O-])cc2)cc1Cl | 7.15 | 19.8 | 2.76 | 9.88 | 3.53 | 13 | 1.84 | 6.26 | 2.58 | 7.28 | 10.6 | 25.5 | 3.16 | 11.9 | 2.92 | 9.42 |  | 
7 | COC1CC2CCC(C)C(O)(O2)C(=O)C(=O)N2CCCCC2C(=O)OC(C(C)CC2CCC(O)C(OC)C2)CC(=O)C(C)C=C(C)C(O)C(OC)C(=O)C(C)CC(C)/C=C/C=C/C=C1C (stereo unspecified) | 5.48 | 17.3 | 5.24 | 14.6 | 4.34 | 11.3 | < 0.005 | 15.2 | 0.0903 | 19.3 | 0.0523 | 10 | < 0.005 | 13 | 0.838 | 14.9 |  | 
8 | C=CC(=O)N1CCN(c2nc(=O)n(-c3c(C)ccnc3C(C)C)c3nc(-c4c(O)cccc4F)c(F)cc23)[C@@H](C)C1 | 14.7 | 36.3 | 38 | > 100 | 15.1 | 36.3 | 17.3 | 70.3 | 18.1 | > 90.9 | 48.7 | > 100 | 31.8 | > 96.3 | 25.1 | 70 |  | 
9 | COC(=O)C1=C(C(=O)ON)C2C=CC1(C(Cc1ccccc1)Nc1ccccc1)O2 (stereo unspecified) | 1.76 | 3.26 | 1.99 | 4.45 | 1.77 | 3.24 | 2.67 | 43.6 | 2.33 | 6.51 | 14.2 | 27.2 | 5.58 | 19.9 | 1.92 | 3.86 |  | 
